Experimental data from patent US20200200735A9, “SYSTEM AND METHOD FOR DETECTING THERAPEUTIC AGENTS TO MONITOR ADHERENCE TO A TREATMENT REGIMEN” (UrSure, Inc., priority 2016, published 2020).
Like-named read-outs stand apart in the source and are kept apart here.

What was measured:
[1] = system: HIV; conditions: Anderson 2012; cited from earlier work
[2] = Cohort 3: 16 week study of HIV negative subjects on daily PrEP, TFV in plasma and urine (LC-MS/MS); format: in vivo, human; conditions: Cohort 3, daily PrEP
Protocol: (§1) 3 cohort studies were conducted to assess a system for detection of the active metabolite tenofovir (TFV) of the prodrug nucleotide reverse transcriptase inhibitor (NRTI) tenofovir disoproxil fumarate (TDF). Cohort 1: a cross sectional study of 10 HIV positive subjects with undetectable HIV viral loads on a TDF-based regimen; Cohort 2: a single dose study of Truvada in 10 healthy subjects to evaluate TFV clearance in plasma and urine over 7 days; Cohort 3: a 16 week study of 10 HIV negative subjects receiving daily PrEP to evaluate concordance between plasma and urine over time.
(§2) A semi-quantitative liquid chromatography-tandem mass spectrometry (LC-MS/MS) urine assay was developed for detection of TFV with high sensitivity/specificity. […] To evaluate the qualitative relationship of urine TFV levels to plasma levels, the levels of TFV in the urine and plasma from Cohort 1 was evaluated. […] In addition, the TFV concentration was 3-4 logs higher in urine than plasma (FIG. 2). In cohort 2, TFV was detected for >7 days in urine and 2-4 days in plasma after a single dose of Truvada™ (FIG. 3). […]
(§3) A semi-quantitative liquid chromatography-tandem mass spectrometry (LC-MS/MS) urine assay with high sensitivity and specificity for TFV allowed us to determine TFV concentrations in log categories between <10 ng/L to >10,000 ng/mL. […]

[3] = system: HIV-1; conditions: cited from earlier work
[4] = in vivo; cited from earlier work
[5] = Cohort 2: single dose of Truvada in healthy subjects, TFV clearance in plasma and urine over 7 days (LC-MS/MS); format: in vivo, human
Protocol: as §1
A semi-quantitative liquid chromatography-tandem mass spectrometry (LC-MS/MS) urine assay was developed for detection of TFV with high sensitivity/specificity. […] To evaluate the qualitative relationship of urine TFV levels to plasma levels, the levels of TFV in the urine and plasma from Cohort 1 was evaluated. […] In addition, the TFV concentration was 3-4 logs higher in urine than plasma (FIG. 2). In cohort 2, TFV was detected for >7 days in urine and 2-4 days in plasma after a single dose of Truvada™ (FIG. 3). […] The urine assay was 2 logs more sensitive than serum over 7 days (FIG. 3).
A semi-quantitative liquid chromatography-tandem mass spectrometry (LC-MS/MS) urine assay with high sensitivity and specificity for TFV allowed us to determine TFV concentrations in log categories between <[…] to >10,000 ng/mL. Following protein precipitation (0.1 mL human plasma or urine or diluted urine sample) using 100% acetonitrile with 0.1% formic acid, containing deuterated internal standard (2H6-tenofovir, 50 ng/mL), the analytes were separated using gradient mobile phase on a reverse phase C18 column and analyzed by MS/MS (AB Sciex API4000). The multiple reaction monitoring of m/z 288.3 to 176.3 for tenofovir and m/z 294.3 to 182.2 for 2H6-tenofovir was used for analysis. […] Flow rate was 0.7 ml/min and total chromatographic run-time was 3.0 minutes/sample.
Standards (10, 100, 1000 and 10,000 ng/mL in human plasma), blanks (double blank and internal standard blank) and unknown plasma and urine samples were thawed to room temperature. One hundred μL of all standards and blanks were put into appropriate wells on a 96 well plate. Diluted unknown urine samples (95 μL blank plasma +5 μL of unknown urine samples, 20-fold dilution) or undiluted plasma samples were mixed with 400 μL of IS solution in a 96 well plate. The plate was vortexed for 30 seconds at high speed and centrifuged for 30 minutes at 4000 rpm. Supernatant was transferred to a fresh 96 well plate and a 10 μL aliquot was injected for LC-MS/MS analysis from autosampler. […] When the concentration of TFV in urine samples exceeded 1,000 ng/mL, samples were diluted 50-fold with blank urine and reanalyzed.

[6] = human, in vivo
Protocol: as §1, §2, §3

[7] = in vivo; cited from earlier work; remark: listed apart in the source

SMILES | intracellular concentration associated with a 90% reduction in HIV acquisition relative to the placebo arm [1] | plasma samples with TFV detected [2] [%] | urine samples with TFV detected [2] [%] | HIV-1 risk reduction corresponding to intracellular tenofovir concentration ([3]; 2 doses per week) [%] | HIV-1 risk reduction corresponding to intracellular tenofovir concentration ([3]; 4 doses per week) [%] | HIV-1 risk reduction corresponding to intracellular tenofovir concentration ([3]; 7 doses per week) [%] | window of exposure reflected by single plasma concentrations [4] [days] | time TFV detected in plasma ([5]; after a single dose of Truvada) [days] | time TFV detected in urine ([5]; after a single dose of Truvada) [days] | urine TFV clearance pattern ([5]; after a single dose of Truvada, over 7 days) | window of medication usage reflected by TFV detection in urine ([5]; after oral TDF/FTC ingestion, preliminary data) | TFV concentration higher in urine than plasma [6] | intracellular half-life [7] [h] | plasma half-life [7] [h]
CC(Cn1cnc2c(N)ncnc21)OCP(=O)(O)OP(=O)(O)OP(=O)(O)O (stereo in doubt) [tenofovir-diphosphate] | 16 fmol per million peripheral blood mononuclear cells (PBMCs) | – | – | – | – | – | – | – | – | – | – | – | – | –
C[C@H](Cn1cnc2c(N)ncnc21)OCP(=O)(O)O [TFV, Tenofovir] | – | 74 | 93 | 76 | 96 | 99 | 2 to 3 | 2 to 4 | > 7 | cleared in a log-linear fashion | one to at least seven days | 3-4 logs | 150 | 17
